# System: GM-CSF-producing CD4-positive memory T-cells
# Assay: GM-CSF-producing CD4-positive memory T-cells in PBMCs of MS patients after single oral dose (FACS)
# Format: in vivo, human
# Conditions: 0.3 mg single oral
# Description: A single dose of compound 31, which is a synthetic glycolipid of the present invention, described in the first aspect was orally administered to each of 2 MS patients (subjects) shown in Table 2 above after obtainment of informed consent. The dose was set to 0.3 mg per person.
# Subsequently, T-cell subfractions were prepared from the peripheral blood of each subject by using the density gradient centrifugation method. First, a total of 20 mL of blood was collected from the vein of each subject 24 hours (1st day), 48 hours (2nd day), 72 hours (3rd day), 168 hours (7th day), and 192 hours (8th day) after the administration of compound 31 by using two 10-mL heparin sodium-containing vacuum blood collection tubes. For a control, 20 mL of blood was similarly collected from the vein of each subject one day before the administration of compound 31.
# Hereinafter, peripheral blood mononuclear cells (PBMCs) were collected by the same operation as in Example 1.
# The collected PBMCs were stained with antibodies by the following method. First, 10 μL of a solution consisting of 8 μL of PBS containing 0.5% BSA/2 mM EDTA-2Na, 0.5 μL of APC-Cy7-anti-CD3 antibody (BioLegend, Inc.), 0.5 μL of ECD-anti-CD8 antibody (Beckman Coulter, Inc.), and 1 μL of PB-anti-CD45RA antibody (BioLegend, Inc.) was added to 2×10^6 cells of PBMCs, thoroughly mixed by vortexing, and then left on ice for 10 minutes. CD3 is a detection marker of T-cells, and CD3^+ cells indicate being T-cells. Also, CD45RA is a detection marker of naive T-cells, and CD45RA^+ cells indicate being naive T-cells. Also, CD45RA^− cells indicate being memory T-cells. Furthermore, CD8^− cells indicate being CD4^+ cells. 1 mL of PBS containing 0.5% BSA/2 mM EDTA-2Na was added, and after centrifugation at 1500 rpm for 5 minutes, a supernatant was removed by suction. Next, 100 μL of BD FIX buffer (Becton, Dickinson and Company) was added dropwise while vortexed, and then left on ice for 20 minutes. 1 mL of MACS buffer was added again, and after centrifugation at 1500 rpm for 5 minutes, a supernatant was removed by suction. Subsequently, 1 mL of 0.1% saponin was added, and the resultant was left at room temperature under light shielding for 2 minutes.
# Subsequently, the resultant was dispensed as 250 μL (I group) and 750 μL (II group), and after centrifugation at 2200 rpm for 5 minutes, a supernatant was removed by suction.
# For group I, 11 μL of a solution consisting of 7 μL of 0.1% saponin, 1 μL of PerCP-Cy5.5-anti-mouse IgG1 antibody (BioLegend, Inc.), 1 μL of Alexa 488-anti-mouse IgG1 antibody (BioLegend, Inc.), 1 μL of APC-anti-mouse IgG1 antibody (BioLegend, Inc.), and 1 μL of PE-anti-rat IgG1 antibody (Becton, Dickinson and Company) was added, thoroughly mixed by vortexing, and then left on ice for 10 minutes. […]
smiles,measurement,setting,value
"CCCCCCCCCCCCCCCCCCCCCCCC(=O)NC(COC1OC(CO)C(O)C(O)C1O)[C@H](O)C(O)CCCCC (stereo in doubt) [compound 31, (2S,3S,4R)-1-O-(α-D-galactosyl)-2-(N-tetracosanoylamino)-1,3,4-nonanetriol]",proportion of GM-CSF-producing CD4-positive memory T-cells in PBMCs,after administration vs day-1,decreased
same,Abundance ratio of mCD4T (%),"day 1, GM-CSF-producing CD4-positive memory T-cells in PBMCs, day −1 value 9.64",6.035%
same,Abundance ratio of mCD4T (%),"day 3, day −1 value 9.64",6.76%
same,Abundance ratio of mCD4T (%),"day 7, day −1 value 9.64",14.325%

# Reference: patent US12447167B2, “GM-CSF-producing t-cell control agent and Th1/Th2 immune balance regulator” (National Center of Neurology and Psychiatry, priority 2014, dated 2025)
